Holding throughout (assay): NCI anticancer screen, dose series, 48 h
Assay [1] deals with A498 renal.
In assay [2] the test system is A549 NSCLC.
The subject of assay [3] is CCRF-CEM leukemia.
Assay [4] relates to COLO 205 colon.
In assay [5] the test system is HCT-116 colon.
Assay [6] relates to IGROV1 ovarian.
The test system of assay [7] is KM12 colon.
In assay [8] the test system is LOX IMVI melanoma.
Assay [9] deals with MALME-3M melanoma.
Assay [10] has as its system NCI-H460 lung.
Assay [11] concerns OVCAR-3 ovarian.
Assay [12] has as its system SF-268 CNS.
In assay [13] the test system is SF-295 CNS.
For assay [14], the system named is SF-539 CNS.
Assay [15] concerns SR leukemia.
Assay [16] deals with SW-620 colon.
Assay [17] concerns DU-145 prostate.
The subject of assay [18] is MCF7 breast.
Assay [19] relates to MDA-MB-435.

Each structure is given as a SMILES string.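 Exposure lasted 48 hours, with cells grown in 96-well plates and compounds tested at five concentrations. TGI: total growth inhibition.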

Consider `COc1cc2c(c(OC)c1OC)[C@@H]1CCCCC[C@@H]1CCC2=O`, for which the TGI in assay [1] is over 100 µM; in assay [2], over 100 µM; in [3], over 77.8 µM; in assay [4], over 77.3 µM; in [5], over 100 µM; in assay [6], over 100 µM. In addition, the TGI was over 100 µM in assay [7]; 38.9 µM in assay [8]; over 100 µM in assay [9]; over 100 µM in assay [10]; over 100 µM in [11]; over 100 µM in [12]. Besides, the TGI in assay [13] is over 100 µM; in assay [14], over 100 µM; in [15], over 59.2 µM; in [16] it was over 100 µM.

On to `COc1c(O)ccc(/C=N/NC(=S)NCOCCOC(C)=O)c1OC`, for which the TGI in assay [1], in assay [2], in assay [3], in assay [4], in assay [5] and in assay [6] was over 100 µM in each case. For the same molecule, the TGI in assay [7], in assay [8], in [9], in assay [10], in [11] and in assay [12] was over 100 µM throughout. Moreover, the TGI in assay [13], in [14] and in [16] was over 100 µM each time.

Consider `CC[n+]1c(/C=C/c2cc(C(=O)OC)n3c2sc2ccccc23)sc2ccccc21`, for which the TGI amounted to 38.3 µM in assay [2]; 32.6 µM in [3]; 65.8 µM in [4]; 37.1 µM in assay [5]; 32.9 µM in assay [6]; 29.1 µM in [7]. Further, the TGI was found to be 40.5 µM in assay [8]; 33 µM in [9]; 34.3 µM in assay [10]; 42.4 µM in assay [11]; 42.2 µM in assay [12]; 33.8 µM in assay [14].

In the case of `c1ccc(CSCCC(SCc2ccccc2)SCc2ccccc2)cc1`, the TGI in assay [1], in assay [2], in [3], in assay [4], in assay [17] and in assay [5] was over 10 µM in each case. The TGI in assay [6], in assay [7], in [8], in assay [9], in [18] and in assay [10] was over 10 µM throughout. The TGI in assay [11], in assay [12], in assay [13], in assay [14], in assay [15] and in [16] was over 10 µM throughout.

In the case of `COc1cc(Br)c(/C=N/N=C(\N)NO)cc1OC`, the TGI was 78.9 µM in [1]; 50.2 µM in assay [2]; over 100 µM in assay [3]; 25.6 µM in [4]; 43.8 µM in assay [5]; over 100 µM in [6]. The TGI is over 100 µM in assay [7]; 61.2 µM in assay [8]; 60.2 µM in [9]; 27.2 µM in [10]; over 100 µM in [11]; 30.6 µM in assay [12]. Further, the TGI was over 100 µM in assay [13], 58.7 µM in [14], over 100 µM in assay [15] and over 100 µM in assay [16].

On to `Cc1nsc2cc(Cl)n(C)c(=O)c12`, for which the TGI in [1], in assay [2], in [3], in assay [4], in [5] and in [6] was over 100 µM each time. Besides, the TGI in assay [7], in assay [8], in assay [9], in assay [10], in assay [11] and in assay [12] was over 100 µM in each case. Moreover, the TGI in assay [14], in assay [15] and in assay [16] was over 100 µM throughout.

On to `C=Cc1c(-c2ccccc2)cnc2[nH]c3ccccc3c12`, for which the TGI in assay [1], in assay [2], in assay [3], in assay [4], in assay [5] and in [6] was over 50 µM each time. In addition, the TGI in assay [7], in assay [8], in assay [9], in assay [10], in [11] and in assay [12] was over 50 µM each time. The TGI in assay [13], in assay [15] and in assay [16] was over 50 µM each time.

For the molecule `COc1cc(C(C)c2cc3c(cc2OCCCCCOc2cc4c(cc2C(C)c2cc(OC)c(OC)c(OC)c2)OCO4)OCO3)cc(OC)c1OC` (stereo unspecified), the TGI in assay [1], in assay [2], in assay [3], in assay [5], in [6] and in assay [7] was over 100 µM throughout. Besides, the TGI in [8], in assay [9], in [10], in [11], in assay [12] and in assay [13] was over 100 µM throughout. The TGI in assay [14], in assay [15] and in [16] was over 100 µM each time.

Turning to `CC1(C)COC(c2cccc(C(=O)c3ccccc3)c2)=N1`, the TGI in [2], in assay [3], in assay [4], in assay [17], in [5] and in assay [6] was over 100 µM throughout. Also, the TGI in assay [7], in [8], in [9], in assay [18], in assay [10] and in assay [11] was over 100 µM each time. In addition, the TGI in assay [12], in [13], in assay [15] and in assay [16] was over 100 µM throughout.

Consider `Nc1ccc(C(=O)NN2C(=O)C(Cl)C2c2ccc(O)cc2)cc1` (stereo unspecified), for which the TGI is 56.5 µM in [1]; over 100 µM in assay [2]; 33.8 µM in assay [3]; 33.4 µM in [4]; 44 µM in assay [5]; 32.9 µM in assay [6]. The TGI in [7] was 47.2 µM; in [8], 22.7 µM; in [9], 32.9 µM; in assay [10], 54.8 µM; in assay [11] it was 29.2 µM; in [12], 27 µM. The figures for the TGI in assay [13], in assay [14] and in [16] were over 100 µM, 34.3 µM and 44.7 µM, respectively.

On to `O=C(O)C(Cc1ccc(O)cc1)N=Cc1nc(-c2ccccc2)oc1O` (stereo unspecified), for which the TGI in assay [1], in assay [2], in assay [3], in assay [4], in assay [5] and in assay [7] was over 100 µM each time. Also, the TGI in assay [8], in assay [9], in [10], in assay [11], in [12] and in assay [13] was over 100 µM throughout. Further, the TGI in assay [14] and in assay [16] was over 100 µM throughout.

Take `CC(=O)NC1=C(NCCO)C(=O)c2ccccc2C1=O`: the TGI in assay [2], in assay [3], in [4], in assay [5], in assay [6] and in assay [7] was over 50 µM throughout. The TGI in assay [8] is over 50 µM; in assay [9], 46 µM; in assay [10] it was over 50 µM; in [11] it was over 50 µM; in assay [12], over 50 µM; in assay [13], over 50 µM. Also, the TGI in assay [14], in assay [15] and in assay [16] was over 50 µM throughout.

For the molecule `CN1CC[C@@]2(c3cccc(O)c3)CC(=O)/C(=C/c3ccc(Cl)c(Cl)c3)[C@H]1C2`, the TGI is 26.5 µM in [1]; 11.5 µM in [2]; over 100 µM in [3]; 16.4 µM in assay [17]; 5.65 µM in assay [6]; 2.81 µM in [8]. Besides, the TGI in assay [9] was found to be 13.1 µM; in [19], 2.8 µM; in assay [10], 4.72 µM; in [11] it was 4.07 µM; in assay [12] it was 7.01 µM; in [13], 3.86 µM. The results for the TGI in assay [15] and in [16] were 5.92 µM and 3.06 µM, respectively.

`O=C(CC(=O)n1nc(-c2ccccc2)c(N=Nc2ccc([N+](=O)[O-])cc2)c1-c1ccccc1)Nc1ccc(Cl)cc1`: the TGI in assay [2] was 56.3 µM; in assay [3] it was 97 µM; in [4] it was 34.9 µM; in assay [5] it was over 100 µM; in [6], over 100 µM; in [7] it was over 100 µM. Also, the TGI in assay [8] was over 100 µM; in [9] it was over 100 µM; in assay [10], over 100 µM; in assay [11], 66.1 µM; in assay [12], over 100 µM; in assay [13], over 100 µM. Also, the TGI in assay [14] is 75.8 µM; in assay [15], over 100 µM; in assay [16], over 100 µM.

For the origin of these results see PubChem BioAssay (NCI).
